Legend:
female NOD mice = assay: i.p. glucose tolerance test (GTT) in FKGK18-treated NOD mice; assay type: in vivo, mouse; settings: for glucose tolerance vs PBS-T: glucose 2 g/kg i.p.
Experimental: (§1) FIGS. 1A-1M show the effects of temporal FKGK18 regimen on T1D incidence and islet phenotype, wherein female NOD mice were administered FKGK18 (20 mg/kg, 3 × weekly) or vehicle (PBS-T) starting at 4 or 8 weeks of age. FIGS. 1A and 1B show diabetes incidence; blood glucose was monitored weekly in the 4-week (FIG. 1A; n = 17 and 15 for PBS-T and FKGK18 groups, respectively) and 8-week (FIG. 1B; n = 15 each in the PBS-T and FKGK18 groups) regimen groups for up to 30 weeks. Two consecutive readings of ≥ 275 mg/dL were recorded as onset of T1D (^†P < 0.05). FIGS. 1C-1F show glucose tolerance test (GTT) results, wherein overnight fasted mice were administered glucose (2 g/kg, i.p.), glucose levels in blood from tail vein were monitored over a 2-hour period, and AUC were generated. FIGS. 1C and 1D show four-week group at 14 weeks of age; n = 5 each in the PBS-T and FKGK18 groups. FIGS. 1E and 1F show eight-week group at 25 weeks of age; n = 7 and 5 for PBS-T and FKGK18 groups, respectively. FIGS. 1G-1I show phenotype parameters in the 8-week regimen group. […] FIGS. 1H and 1I show β Cell mass (PBS-T, n = 15; FKGK18, n = 14) (FIG. 1H) and circulating insulin (n = 15 in each group) (FIG. 1I) were determined at sacrifice (PBS-T, 14-30 weeks of age; FKGK18, 16-36 weeks of age). FIGS. 1J and 1K show islet infiltration; paraffin sections (10 µm) of pancreas were prepared and stained with H&E. Percent infiltration for each islet was calculated as the value of noninfiltrated area subtracted from total islet area (% infiltrate = 100 × [(total area - noninfiltrated area)/(total area)]) using ImageJ software. […]
FIGS. 2A-2E show the effects of FKGK18-withdrawal regimen on T1D incidence and glucose tolerance, wherein female NOD mice were administered FKGK18 (20 mg/kg, 3 × weekly, n = 18) or vehicle (PBS-T, n = 17) starting at 10 days of age and until 14 weeks of age. […] FIGS. 2B and 2D show glucose tolerance test (GTT) results, assessed at 14 (FIG. 2B) and 25 (FIG. 2D) weeks of age (data are presented as mean ± SEM), as described in FIG. 1. […]

iPLA2β = biological target: T1, iPLA2β (Mus musculus, UniProt P97819); assay: Urinary PGE2 metabolites (PGEM), reflecting in vivo inhibition of iPLA2β activity; settings: 8-week regimen group; 18 weeks of age
T1 construct: from tissue; host or cells: whole animal: female NOD mice (wild-type Pla2g6), urine collected for PGE2 metabolites
T1 sequence (P97819 1-807): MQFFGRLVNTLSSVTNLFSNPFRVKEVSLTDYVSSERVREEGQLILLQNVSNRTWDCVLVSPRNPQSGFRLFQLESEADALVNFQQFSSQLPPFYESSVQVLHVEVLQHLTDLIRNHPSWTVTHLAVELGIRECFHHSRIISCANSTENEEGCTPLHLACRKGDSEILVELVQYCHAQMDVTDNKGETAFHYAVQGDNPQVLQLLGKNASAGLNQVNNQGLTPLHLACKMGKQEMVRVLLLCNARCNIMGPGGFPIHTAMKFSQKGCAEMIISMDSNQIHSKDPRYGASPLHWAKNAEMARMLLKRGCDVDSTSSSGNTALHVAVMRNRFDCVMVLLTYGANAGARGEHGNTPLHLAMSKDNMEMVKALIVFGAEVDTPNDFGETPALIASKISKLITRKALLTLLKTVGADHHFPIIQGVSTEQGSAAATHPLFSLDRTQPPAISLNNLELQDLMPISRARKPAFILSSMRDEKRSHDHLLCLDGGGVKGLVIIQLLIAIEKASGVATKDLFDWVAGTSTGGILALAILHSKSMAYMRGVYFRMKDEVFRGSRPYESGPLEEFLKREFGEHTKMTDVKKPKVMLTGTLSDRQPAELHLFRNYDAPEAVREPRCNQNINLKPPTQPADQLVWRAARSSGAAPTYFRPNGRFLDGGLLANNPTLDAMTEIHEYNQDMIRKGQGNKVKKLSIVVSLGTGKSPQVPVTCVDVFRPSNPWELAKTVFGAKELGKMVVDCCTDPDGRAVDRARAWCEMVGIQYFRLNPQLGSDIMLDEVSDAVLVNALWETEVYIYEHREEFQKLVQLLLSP
Experimental: as §1, with “generated.” for “generated. FIGS. 1C and 1D show four-week group at 14 weeks of age; n = 5 each in the PBS-T and FKGK18 groups. FIGS. 1E and 1F show eight-week group at 25 weeks of age; n = 7 and 5 for PBS-T and FKGK18 groups, respectively. FIGS. 1G-1I show phenotype parameters in the 8-week regimen group.”

O=C(CCCCc1ccc2ccccc2c1)C(F)(F)F [FKGK18]
glucose tolerance, PBS-T vs FKGK18-withdrawn group (female NOD mice; FKGK18 from 10 days until 14 weeks of age, GTT at 14 and 25 weeks of age): indistinguishable
glucose tolerance vs PBS-T (female NOD mice; FKGK18 started at 4 weeks of age, GTT at 14 weeks of age): No differences
glucose tolerance vs PBS-T (female NOD mice; FKGK18 started at 8 weeks of age, GTT at 25 weeks of age): No differences
urinary PGE2 metabolites (PGEM) relative to vehicle-treated mice (iPLA2β): reduced

From patent US20230263826A1, “Compositions and Methods for Treatment and Prevention of Type 1 Diabetes” (The UAB Research Foundation, priority 2021, published 2023)
